The values that follow come from US12371428B2 (Exelixis, Inc., priority 2019, dated 2025).

A value given as a limit tells only on which side of the number the result lay.

Type in all cases: biochemical
Test [1] has as its target Human MET (residues 956-1390) (Homo sapiens (Human), UniProt P08581). Put plainly: Human Met kinase assay, HTRF KinEase (Example D-2). To be noted: protocol of Example D-2 (other compounds); read-out: c-Met IC50. The method in brief:
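IC50 values come from a 4-parameter logistic fit of the […] fluorescence ratio, set between DMSO (100%) and reference compound at 1 μM (0%). Reactions held MET 956-1390 at 0.1 ng/well, ATP at Km, biotinylated peptide, 5 mM MgCl2, 1 mM MnCl2, 1 mM DTT and 3% DMSO, and ran 40 min at room temperature before streptavidin-XL665/Eu-antibody detection.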
Background: Time-resolved FRET reads energy transfer from a long-lived donor to a nearby acceptor.

For test [2], the target named is Human KDR (residues 790-1356) (Homo sapiens (Human), UniProt P35968). In words: Human KDR kinase assay, HTRF KinEase (Example B-2). Conditions: protocol of Example B-2 (other compounds). The method in brief:
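Human KDR residues 790-1356 (0.1 ng/well) in buffer with 5 mM MgCl2, 1 mM MnCl2, 1 mM DTT, biotinylated peptide substrate, ATP at Km (4.0 μM), 3% DMSO, 10 compound concentrations; 40 min, room temperature. EDTA stop, streptavidin-XL665/Eu-TK antibody HTRF read 665/620 nm; 4-parameter IC50.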

In test [3] the target is Human MER (residues 528-999) (Homo sapiens (Human), UniProt Q12866). In words: Human Mer kinase assay, HTRF KinEase (Example C-2). Conditions: protocol of Example C-2 (other compounds). An outline of the steps:
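IC50 values from 10 concentrations via 4-parameter logistic fit of […], with DMSO as 100% and 1 μM reference compound as 0% activity. Reaction: MER kinase domain 528-999, 1 ng/well, 40 μM ATP (Km), biotin peptide, 5 mM MgCl2, 1 mM DTT, 3% DMSO, room temperature 60 min; HTRF streptavidin-XL665/Eu-antibody detection.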

Sequence of Human KDR (residues 790-1356) (P35968 790-1356): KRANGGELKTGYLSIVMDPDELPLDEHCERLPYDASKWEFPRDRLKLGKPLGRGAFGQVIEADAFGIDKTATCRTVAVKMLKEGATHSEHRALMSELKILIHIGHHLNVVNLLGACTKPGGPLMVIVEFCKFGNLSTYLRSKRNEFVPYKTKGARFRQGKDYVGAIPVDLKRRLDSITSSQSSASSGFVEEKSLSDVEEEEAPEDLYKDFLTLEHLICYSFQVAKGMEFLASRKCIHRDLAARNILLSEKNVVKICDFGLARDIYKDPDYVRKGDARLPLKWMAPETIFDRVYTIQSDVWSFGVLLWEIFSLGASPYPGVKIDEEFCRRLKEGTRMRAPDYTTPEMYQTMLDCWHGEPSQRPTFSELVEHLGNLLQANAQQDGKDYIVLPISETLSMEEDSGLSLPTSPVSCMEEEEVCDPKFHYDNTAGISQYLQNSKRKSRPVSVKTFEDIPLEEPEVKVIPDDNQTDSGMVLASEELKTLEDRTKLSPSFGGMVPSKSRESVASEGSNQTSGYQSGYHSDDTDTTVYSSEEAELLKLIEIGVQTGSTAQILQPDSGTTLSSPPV
Sequence of Human MET (residues 956-1390) (P08581 956-1390): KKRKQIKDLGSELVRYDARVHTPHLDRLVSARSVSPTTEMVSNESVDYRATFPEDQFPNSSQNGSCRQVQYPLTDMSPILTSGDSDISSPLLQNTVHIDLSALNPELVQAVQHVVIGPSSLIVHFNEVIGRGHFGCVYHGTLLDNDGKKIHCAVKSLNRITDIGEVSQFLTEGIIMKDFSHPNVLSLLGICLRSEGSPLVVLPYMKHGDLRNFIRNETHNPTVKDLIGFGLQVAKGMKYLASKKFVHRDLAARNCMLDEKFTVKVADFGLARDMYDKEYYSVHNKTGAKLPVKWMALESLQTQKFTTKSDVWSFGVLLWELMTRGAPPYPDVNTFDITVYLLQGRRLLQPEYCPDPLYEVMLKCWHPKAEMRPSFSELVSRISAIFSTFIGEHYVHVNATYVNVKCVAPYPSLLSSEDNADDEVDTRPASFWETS
Sequence of Human MER (residues 528-999) (Q12866 528-999): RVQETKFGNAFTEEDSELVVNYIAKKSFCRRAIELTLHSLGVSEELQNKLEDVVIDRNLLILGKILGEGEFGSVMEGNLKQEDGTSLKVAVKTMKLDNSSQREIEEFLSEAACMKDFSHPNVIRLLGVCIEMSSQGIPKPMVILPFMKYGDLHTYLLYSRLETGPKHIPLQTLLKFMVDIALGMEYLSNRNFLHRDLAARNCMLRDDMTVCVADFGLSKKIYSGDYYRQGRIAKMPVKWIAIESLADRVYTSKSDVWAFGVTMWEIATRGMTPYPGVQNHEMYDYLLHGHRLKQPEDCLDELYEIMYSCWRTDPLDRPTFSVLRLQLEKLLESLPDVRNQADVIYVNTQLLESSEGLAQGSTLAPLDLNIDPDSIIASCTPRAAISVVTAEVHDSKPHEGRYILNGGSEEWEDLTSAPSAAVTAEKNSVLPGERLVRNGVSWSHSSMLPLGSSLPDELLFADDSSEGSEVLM

What is called IC50 is the point on the concentration scale where inhibition reaches its midpoint. As to `COc1cc2nccc(Oc3ccc(NC(=O)c4cnc(C)n(-c5ccc(F)cc5)c4=O)cc3F)c2nc1OC` [Compound 97, N-[4-[(6,7-Dimethoxy-1,5-naphthyridin-4-yl)oxy]-3-fluorophenyl]-1-(4-fluorophenyl)-2-methyl-6-oxopyrimidine-5-carboxamide], the IC50 in test [1], in test [2] and in test [3] was under 100 nM each time.
In the case of `COc1cc2nccc(Oc3ccc(NC(=O)c4c(C)ncn(-c5ccc(F)cc5)c4=O)cc3F)c2nc1OC` [Compound 98, N-[4-[(6,7-Dimethoxy-1,5-naphthyridin-4-yl)oxy]-3-fluorophenyl]-1-(4-fluorophenyl)-4-methyl-6-oxopyrimidine-5-carboxamide], the IC50 in test [1], in test [2] and in test [3] was under 100 nM each time.
`COc1cc2nccc(Oc3ccc(NC(=O)c4cnc(N(C)C)n(-c5ccc(F)cc5)c4=O)cc3F)c2nc1OC` [Compound 100, N-[4-[(6,7-Dimethoxy-1,5-naphthyridin-4-yl)oxy]-3-fluorophenyl]-2-(dimethylamino)-1-(4-fluorophenyl)-6-oxopyrimidine-5-carboxamide]: the IC50 in test [1], in test [2] and in test [3] was under 100 nM throughout.
Take `COc1cc2nccc(Oc3ccc(NC(=O)c4c(C)nc(C)n(-c5ccc(F)cc5)c4=O)cc3F)c2nc1OC` [Compound 101, N-[4-[(6,7-Dimethoxy-1,5-naphthyridin-4-yl)oxy]-3-fluorophenyl]-1-(4-fluorophenyl)-2,4-dimethyl-6-oxopyrimidine-5-carboxamide]: the IC50 in test [1], in test [2] and in test [3] was under 100 nM each time.
Regarding `COc1cc2nccc(Oc3ccc(NC(=O)c4c[nH]c(=O)n(-c5ccc(F)cc5)c4=O)cc3F)c2nc1OC` [Compound 102, N-[4-[(6,7-Dimethoxy-1,5-naphthyridin-4-yl)oxy]-3-fluorophenyl]-3-(4-fluorophenyl)-2,4-dioxo-1H-pyrimidine-5-carboxamide], the IC50 in test [1], in test [2] and in test [3] was under 100 nM each time.
As to `COc1ccc2c(Oc3ccc(NC(=O)c4cnc(C)c(-c5ccc(F)cc5)c4O)cc3F)ccnc2c1` [Compound 105, N-[3-Fluoro-4-(7-methoxyquinolin-4-yl)oxyphenyl]-5-(4-fluorophenyl)-4-hydroxy-6-methylpyridine-3-carboxamide], the figures for the IC50 in test [1], in test [2] and in test [3] were under 100 nM, 100 to 300 nM and under 100 nM, respectively.
For the compound `COc1ccc2c(Oc3ccc(NC(=O)c4cn(C(C)C)c(C)c(-c5ccc(F)cc5)c4=O)cc3F)ccnc2c1` [Compound 106, N-[3-Fluoro-4-(7-methoxyquinolin-4-yl)oxyphenyl]-5-(4-fluorophenyl)-6-methyl-4-oxo-1-propan-2-ylpyridine-3-carboxamide], the IC50 in test [1] was under 100 nM; in test [2], over 300 nM; in test [3], under 100 nM.
For the compound `CCn1cc(C(=O)Nc2ccc(Oc3ccnc4cc(OC)ccc34)c(F)c2)c(=O)c(-c2ccc(F)cc2)c1C` [Compound 107, 1-Ethyl-N-[3-fluoro-4-(7-methoxyquinolin-4-yl)oxyphenyl]-5-(4-fluorophenyl)-6-methyl-4-oxopyridine-3-carboxamide], the results for the IC50 in test [1], in test [2] and in test [3] were under 100 nM, over 300 nM and under 100 nM, respectively.
Turning to `COc1ccc2c(Oc3ccc(NC(=O)c4cnc(C)c(-c5ccc(F)cc5)c4O)cc3)ccnc2c1` [Compound 108, 5-(4-Fluorophenyl)-4-hydroxy-N-[4-(7-methoxyquinolin-4-yl)oxyphenyl]-6-methylpyridine-3-carboxamide], the 50% inhibitory concentration (IC50) in test [1], in test [2] and in test [3] was under 100 nM in each case.
Consider `COc1cc2nccc(Oc3ccc(NC(=O)c4cnc(C)c(-c5ccc(F)cc5)c4O)cc3F)c2cc1OC` [Compound 109, N-[4-(6,7-Dimethoxyquinolin-4-yl)oxy-3-fluorophenyl]-5-(4-fluorophenyl)-4-hydroxy-6-methylpyridine-3-carboxamide], for which the 50% inhibitory concentration (IC50) in test [1], in test [2] and in test [3] was under 100 nM each time.
In the case of `COc1cnc2c(Oc3ccc(NC(=O)c4cn(C)c(C)c(-c5ccc(F)cc5)c4=O)cc3)ccnc2c1` [Compound 111, 5-(4-Fluorophenyl)-N-[4-[(7-methoxy-1,5-naphthyridin-4-yl)oxy]phenyl]-1,6-dimethyl-4-oxopyridine-3-carboxamide], the IC50 in test [1] was under 100 nM; in test [2], over 300 nM; in test [3], under 100 nM.
Turning to `COc1cnc2c(Oc3ccc(NC(=O)c4cn(C)cc(-c5ccc(F)cc5)c4=O)cc3F)ccnc2c1` [Compound 112, N-[3-Fluoro-4-[(7-methoxy-1,5-naphthyridin-4-yl)oxy]phenyl]-5-(4-fluorophenyl)-1-methyl-4-oxopyridine-3-carboxamide], the results for the IC50 in test [1], in test [2] and in test [3] were under 100 nM, over 300 nM and under 100 nM, respectively.
Turning to `COc1ccc2nccc(Oc3ccc(NC(=O)c4cn(C)c(C)c(-c5ccc(F)cc5)c4=O)cc3F)c2n1` [Compound 113, N-[3-Fluoro-4-[(6-methoxy-1,5-naphthyridin-4-yl)oxy]phenyl]-5-(4-fluorophenyl)-1,6-dimethyl-4-oxopyridine-3-carboxamide], the IC50 in test [1] is 100 to 300 nM; in test [2] it was over 300 nM; in test [3], under 100 nM.
`COc1cc2nccc(Oc3ccc(NC(=O)c4cn(C(C)C)c(C)c(-c5ccc(F)cc5)c4=O)cc3)c2nc1OC` [Compound 115, N-[4-[(6,7-Dimethoxy-1,5-naphthyridin-4-yl)oxy]phenyl]-5-(4-fluorophenyl)-6-methyl-4-oxo-1-propan-2-ylpyridine-3-carboxamide]: the IC50 in test [1], in test [2] and in test [3] was under 100 nM each time.
Consider `CCn1cc(C(=O)Nc2ccc(Oc3ccnc4cc(OC)c(OC)nc34)c(F)c2)c(=O)c(-c2ccc(F)cc2)c1` [Compound 116, N-[4-[(6,7-Dimethoxy-1,5-naphthyridin-4-yl)oxy]-3-fluorophenyl]-1-ethyl-5-(4-fluorophenyl)-4-oxopyridine-3-carboxamide], for which the IC50 in test [1], in test [2] and in test [3] was under 100 nM each time.
As for `COc1cc2nccc(Oc3ccc(NC(=O)c4cn(CCO)cc(-c5ccc(F)cc5)c4=O)cc3F)c2nc1OC` [Compound 117, N-[4-[(6,7-Dimethoxy-1,5-naphthyridin-4-yl)oxy]-3-fluorophenyl]-5-(4-fluorophenyl)-1-(2-hydroxyethyl)-4-oxopyridine-3-carboxamide], the IC50 in test [1], in test [2] and in test [3] was under 100 nM each time.
Turning to `COc1cc2nccc(Oc3ccc(NC(=O)c4cncc(-c5ccc(F)cc5)c4O)cc3)c2nc1OC` [Compound 118, N-[4-[(6,7-Dimethoxy-1,5-naphthyridin-4-yl)oxy]phenyl]-5-(4-fluorophenyl)-4-hydroxypyridine-3-carboxamide], the IC50 in test [1], in test [2] and in test [3] was under 100 nM in each case.
